Measurements published in ChEMBL document CHEMBL6115007, “Synthesis and in vitro and in vivo evaluation of novel bivalent quinolines as antitumor agents via targeting autophagy in cervical cancer” (Eur J Med Chem, 2025).
Calls of active or inactive are those of the source. The rule behind the calls is not given here.

Experiments:
Assay type in all cases: functional, cell-based
MCF7 = assay: Antiproliferative activity against human MCF7 cells assessed as reduction in cell optical density incubated for 48 hrs by MTT assay; conditions: MCF7, 48 h
HeLa [1] = assay: Antiproliferative activity against human HeLa cells assessed as reduction in cell optical density incubated for 48 hrs by MTT assay
BGC-823 = assay: Antiproliferative activity against human BGC-823 cells assessed as reduction in cell optical density incubated for 48 hrs by MTT assay; conditions: BGC-823, 48 h
HepG2 = assay: Antiproliferative activity against human HepG2 cells assessed as reduction in cell optical density incubated for 48 hrs by MTT assay; conditions: HepG2, 48 h
HCT-116 = assay: Antiproliferative activity against human HCT-116 cells assessed as reduction in cell optical density incubated for 48 hrs by MTT assay; conditions: HCT-116, 48 h
A549 = assay: Antiproliferative activity against human A549 cells assessed as reduction in cell optical density incubated for 48 hrs by MTT assay; conditions: A549, 48 h
Ca-Ski = assay: Induction of ferroptosis in human Ca Ski cells assessed as increase in lipid ROS level by measuring rightward shift in fluorescence intensity at 6 uM measured after 12 hrs by C11-BODIPY-581/591 staining based flow cytometric analysis
HeLa [2] = assay: Induction of ferroptosis in human HeLa cells assessed as increase in lipid ROS level by measuring rightward shift in fluorescence intensity at 8 uM measured after 12 hrs by C11-BODIPY-581/591 staining based flow cytometric analysis
HeLa [3] = assay: Induction of autophagy in human HeLa cells transfected with mRFP-GFP-LC3 plasmid assessed as stable RFP fluorescence at 30 uM incubated for 24 hrs by DAPI staining based fluorescence confocal microscopic analysis

Fc1cccc(Nc2ccnc3cc(OCCCCCOc4ccc5c(Nc6cccc(F)c6)ccnc5c4)ccc23)c1
IC50 (MCF7): 4.98 µM | IC50 (HeLa [1]): 4.34 µM | IC50 (BGC-823): 2.44 µM | IC50 (HepG2): 45.4 µM | IC50 (HCT-116): 3.28 µM | IC50 (A549): 2.55 µM

FC(F)(F)Oc1cccc(Nc2ccnc3cc(OCCCCCOc4ccc5c(Nc6cccc(OC(F)(F)F)c6)ccnc5c4)ccc23)c1
IC50 (MCF7): 38 µM | IC50 (HeLa [1]): 14.3 µM | IC50 (BGC-823): 3.35 µM | IC50 (HepG2): 24.8 µM | IC50 (HCT-116): 17.2 µM | IC50 (A549): 0.78 µM

CN1CCN(c2ccnc3cc(OCCCCCOc4ccc5c(N6CCN(C)CC6)ccnc5c4)ccc23)CC1
IC50 (MCF7): 6.03 µM | IC50 (HeLa [1]): 30.9 µM | IC50 (BGC-823): 3.55 µM | IC50 (HepG2): 35.1 µM | IC50 (HCT-116): 3.85 µM | IC50 (A549): 26 µM

Fc1cccc(Nc2ccnc3cc(OCCCCCCOc4ccc5c(Nc6cccc(F)c6)ccnc5c4)ccc23)c1
IC50 (MCF7): > 200 µM | IC50 (HeLa [1]): 0.94 µM | IC50 (BGC-823): 9.82 µM | IC50 (HepG2): 0.36 µM | IC50 (HCT-116): 6.64 µM | IC50 (A549): 0.75 µM

COC(=O)c1ccc([C@H]2c3[nH]c4ccccc4c3C[C@H](C(=O)OC)N2C(=O)CCl)cc1
Activity (Ca-Ski): Active | Activity (HeLa [2]): Active

COc1cccc(Nc2ccnc3cc(OCCCCCCOc4ccc5c(Nc6cccc(OC)c6)ccnc5c4)ccc23)c1
IC50 (MCF7): 5.55 µM | IC50 (HeLa [1]): 4.07 µM | IC50 (BGC-823): 3.58 µM | IC50 (HepG2): 31.9 µM | IC50 (HCT-116): 6.99 µM | IC50 (A549): 6.15 µM

CN1CCN(c2ccnc3cc(OCCCCOc4ccc5c(N6CCN(C)CC6)ccnc5c4)ccc23)CC1
IC50 (MCF7): > 200 µM | IC50 (HeLa [1]): 146 µM | IC50 (BGC-823): 136 µM | IC50 (HepG2): > 200 µM | IC50 (HCT-116): > 200 µM | IC50 (A549): 139 µM

Fc1cccc(Nc2ccnc3cc(OCCCCOc4ccc5c(Nc6cccc(F)c6)ccnc5c4)ccc23)c1
IC50 (MCF7): 6.79 µM | IC50 (HeLa [1]): 37.3 µM | IC50 (BGC-823): 18.7 µM | IC50 (HepG2): 10.5 µM | IC50 (HCT-116): 17.1 µM | IC50 (A549): 13.3 µM

CN1CCN(c2ccnc3cc(OCCCCCCOc4ccc5c(N6CCN(C)CC6)ccnc5c4)ccc23)CC1
IC50 (MCF7): 44.3 µM | IC50 (HeLa [1]): 26.1 µM | IC50 (BGC-823): 50.2 µM | IC50 (HepG2): 43.3 µM | IC50 (HCT-116): 42.3 µM | IC50 (A549): 0.33 µM

COc1cccc(Nc2ccnc3cc(OCCCCOc4ccc5c(Nc6cccc(OC)c6)ccnc5c4)ccc23)c1
IC50 (MCF7): 47.2 µM | IC50 (HeLa [1]): 48.3 µM | IC50 (BGC-823): 63.8 µM | IC50 (HepG2): > 200 µM | IC50 (HCT-116): > 200 µM | IC50 (A549): 142 µM

FC(F)(F)Oc1cccc(Nc2ccnc3cc(OCCCCCCOc4ccc5c(Nc6cccc(OC(F)(F)F)c6)ccnc5c4)ccc23)c1
IC50 (MCF7): > 200 µM | IC50 (HeLa [1]): 28.3 µM | IC50 (BGC-823): 89.4 µM | IC50 (HepG2): 44.8 µM | IC50 (HCT-116): 10.3 µM | IC50 (A549): 0.31 µM

CO[C@H]1C[C@@H]2CC[C@@H](C)[C@@](O)(O2)C(=O)C(=O)N2CCCC[C@H]2C(=O)O[C@H]([C@H](C)C[C@@H]2CC[C@@H](O)[C@H](OC)C2)CC(=O)[C@H](C)/C=C(\C)[C@@H](O)[C@@H](OC)C(=O)[C@H](C)C[C@H](C)/C=C/C=C/C=C/1C
Activity (HeLa [3]): Active

FC(F)(F)Oc1cccc(Nc2ccnc3cc(OCCCCOc4ccc5c(Nc6cccc(OC(F)(F)F)c6)ccnc5c4)ccc23)c1
IC50 (MCF7): > 200 µM | IC50 (HeLa [1]): 14.1 µM | IC50 (BGC-823): 66 µM | IC50 (HepG2): 2.75 µM | IC50 (HCT-116): 13.5 µM | IC50 (A549): 2.75 µM
